Columns and labels:
Assay type in all cases: cell-based
[1] = biological target: T1, WEE1 (Homo sapiens, UniProt P30291+Q96SW2); assay: Western blot degradation of WEE1 in hPBMC
T1 construct: endogenous in cells; host or cells: hPBMC
Procedure, shortened: (§1)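 hPBMC, compound-treated; SDS-PAGE Western, NC membrane, 1 h RT block. DC50 = conc. at 50% of DMSO band grayscale (curve fit). % remaining = target/internal control band ratio, normalized.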

[2] = biological target: T2, IKZF1 (Homo sapiens, UniProt Q13422+Q96SW2); assay: Western blot degradation of IKZF1 in hPBMC
T2 construct: endogenous in cells; host or cells: hPBMC
Procedure, shortened: as §1

[3] = biological target: T3, IKZF2 (Homo sapiens, UniProt Q96SW2+Q9UKS7); assay: Western blot degradation of IKZF2 in hPBMC
T3 construct: endogenous in cells; host or cells: hPBMC
T3 sequence (Q9UKS7 whole entry): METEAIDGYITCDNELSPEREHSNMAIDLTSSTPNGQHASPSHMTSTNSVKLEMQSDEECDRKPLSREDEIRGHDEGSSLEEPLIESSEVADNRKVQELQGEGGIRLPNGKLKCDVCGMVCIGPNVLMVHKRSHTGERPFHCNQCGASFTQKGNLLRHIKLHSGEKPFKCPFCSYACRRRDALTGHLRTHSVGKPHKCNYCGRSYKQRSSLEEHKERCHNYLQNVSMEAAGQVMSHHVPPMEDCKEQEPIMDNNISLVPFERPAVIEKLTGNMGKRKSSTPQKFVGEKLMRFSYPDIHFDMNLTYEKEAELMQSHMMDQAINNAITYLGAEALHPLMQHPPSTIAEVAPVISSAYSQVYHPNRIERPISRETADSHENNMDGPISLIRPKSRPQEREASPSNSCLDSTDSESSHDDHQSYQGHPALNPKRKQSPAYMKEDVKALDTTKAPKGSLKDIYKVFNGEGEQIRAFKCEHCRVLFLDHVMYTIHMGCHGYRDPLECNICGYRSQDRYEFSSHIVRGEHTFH
T3 sequence (Q96SW2 whole entry): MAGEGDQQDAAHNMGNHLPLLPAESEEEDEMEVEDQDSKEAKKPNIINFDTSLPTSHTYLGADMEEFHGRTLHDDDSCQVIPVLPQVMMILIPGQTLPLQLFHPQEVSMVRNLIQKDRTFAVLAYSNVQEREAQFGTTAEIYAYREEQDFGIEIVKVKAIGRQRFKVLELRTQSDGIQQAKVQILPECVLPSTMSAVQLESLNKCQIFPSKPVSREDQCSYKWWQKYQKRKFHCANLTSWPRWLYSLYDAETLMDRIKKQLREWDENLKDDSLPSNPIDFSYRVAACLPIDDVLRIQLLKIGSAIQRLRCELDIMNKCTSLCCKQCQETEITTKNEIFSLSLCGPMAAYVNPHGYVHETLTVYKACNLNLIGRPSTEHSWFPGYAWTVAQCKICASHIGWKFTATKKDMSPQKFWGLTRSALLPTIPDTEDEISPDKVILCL
T3 sequence (Q16531 whole entry partner): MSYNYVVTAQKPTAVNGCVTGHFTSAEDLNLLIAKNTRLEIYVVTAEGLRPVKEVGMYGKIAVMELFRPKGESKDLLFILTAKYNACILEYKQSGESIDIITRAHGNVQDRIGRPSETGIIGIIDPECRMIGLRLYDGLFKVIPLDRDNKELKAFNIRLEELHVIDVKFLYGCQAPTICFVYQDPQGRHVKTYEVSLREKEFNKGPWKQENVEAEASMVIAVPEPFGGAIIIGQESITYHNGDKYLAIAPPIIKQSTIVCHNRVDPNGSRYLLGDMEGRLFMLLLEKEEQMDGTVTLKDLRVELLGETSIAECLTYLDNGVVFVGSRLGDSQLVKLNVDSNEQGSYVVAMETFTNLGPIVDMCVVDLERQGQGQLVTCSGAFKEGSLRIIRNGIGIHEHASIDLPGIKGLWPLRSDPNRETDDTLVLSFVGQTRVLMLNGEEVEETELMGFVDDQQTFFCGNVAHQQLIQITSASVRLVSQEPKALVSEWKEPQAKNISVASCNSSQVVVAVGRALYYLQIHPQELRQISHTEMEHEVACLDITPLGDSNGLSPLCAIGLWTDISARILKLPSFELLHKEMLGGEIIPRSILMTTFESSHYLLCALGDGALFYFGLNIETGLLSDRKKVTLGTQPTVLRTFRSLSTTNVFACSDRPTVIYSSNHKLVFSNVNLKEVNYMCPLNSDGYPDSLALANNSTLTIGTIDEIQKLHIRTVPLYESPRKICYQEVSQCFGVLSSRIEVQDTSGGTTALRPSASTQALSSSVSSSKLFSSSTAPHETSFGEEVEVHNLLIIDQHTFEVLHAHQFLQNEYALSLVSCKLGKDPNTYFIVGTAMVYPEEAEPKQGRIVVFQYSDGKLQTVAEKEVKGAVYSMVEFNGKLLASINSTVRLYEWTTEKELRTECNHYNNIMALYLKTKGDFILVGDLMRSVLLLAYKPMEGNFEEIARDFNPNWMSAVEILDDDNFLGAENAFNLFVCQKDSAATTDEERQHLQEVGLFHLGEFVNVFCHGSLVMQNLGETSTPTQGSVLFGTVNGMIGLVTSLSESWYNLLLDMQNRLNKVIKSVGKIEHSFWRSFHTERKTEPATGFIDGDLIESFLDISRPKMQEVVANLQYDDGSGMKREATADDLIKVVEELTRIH
Procedure, shortened: as §1

[4] = biological target: T4, IKZF3 (Homo sapiens, UniProt Q96SW2+Q9UKT9); assay: Western blot degradation of IKZF3 in hPBMC
T4 construct: endogenous in cells; host or cells: hPBMC
T4 sequence (Q9UKT9 whole entry): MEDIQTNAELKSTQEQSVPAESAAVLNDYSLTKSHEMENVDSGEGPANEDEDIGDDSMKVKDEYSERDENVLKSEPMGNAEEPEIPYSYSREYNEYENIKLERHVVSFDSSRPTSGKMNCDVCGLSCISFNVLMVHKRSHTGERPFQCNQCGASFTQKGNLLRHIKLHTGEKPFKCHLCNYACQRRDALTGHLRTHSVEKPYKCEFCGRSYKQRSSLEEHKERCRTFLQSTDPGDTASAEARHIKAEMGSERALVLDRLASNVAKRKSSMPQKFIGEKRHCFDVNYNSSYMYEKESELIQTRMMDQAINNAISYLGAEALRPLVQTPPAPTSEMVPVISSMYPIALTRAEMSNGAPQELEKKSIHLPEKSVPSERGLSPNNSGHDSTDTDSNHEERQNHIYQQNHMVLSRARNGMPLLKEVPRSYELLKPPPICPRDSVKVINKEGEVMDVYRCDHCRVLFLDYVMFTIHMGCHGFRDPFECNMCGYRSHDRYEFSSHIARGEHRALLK
T4 sequence (Q96SW2 whole entry): as the sequence (Q96SW2 whole entry) above
T4 sequence (Q16531 whole entry partner): as the sequence (Q16531 whole entry partner) above
Procedure, shortened: as §1

[5] = biological target: T5, CK1a (Homo sapiens, UniProt P48729+Q96SW2); assay: Western blot degradation of CK1a in hPBMC
T5 construct: endogenous in cells; host or cells: hPBMC
T5 sequence (P48729 whole entry): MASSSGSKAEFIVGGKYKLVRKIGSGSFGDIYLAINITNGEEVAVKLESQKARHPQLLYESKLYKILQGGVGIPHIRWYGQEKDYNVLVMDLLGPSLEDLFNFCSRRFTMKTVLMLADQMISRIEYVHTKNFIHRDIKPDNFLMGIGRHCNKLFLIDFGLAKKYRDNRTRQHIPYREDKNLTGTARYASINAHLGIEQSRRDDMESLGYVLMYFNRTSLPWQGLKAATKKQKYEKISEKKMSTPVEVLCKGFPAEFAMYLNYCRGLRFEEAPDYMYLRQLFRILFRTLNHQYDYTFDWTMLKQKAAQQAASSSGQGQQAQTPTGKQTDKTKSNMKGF
T5 sequence (Q96SW2 whole entry): as the sequence (Q96SW2 whole entry) above
T5 sequence (Q16531 whole entry partner): as the sequence (Q16531 whole entry partner) above
Procedure, shortened: as §1

[6] = biological target: T6, GSPT1 (Homo sapiens, UniProt P15170+Q96SW2); assay: Western blot degradation of GSPT1 in hPBMC
T6 construct: endogenous in cells; host or cells: hPBMC
T6 sequence (P15170 whole entry): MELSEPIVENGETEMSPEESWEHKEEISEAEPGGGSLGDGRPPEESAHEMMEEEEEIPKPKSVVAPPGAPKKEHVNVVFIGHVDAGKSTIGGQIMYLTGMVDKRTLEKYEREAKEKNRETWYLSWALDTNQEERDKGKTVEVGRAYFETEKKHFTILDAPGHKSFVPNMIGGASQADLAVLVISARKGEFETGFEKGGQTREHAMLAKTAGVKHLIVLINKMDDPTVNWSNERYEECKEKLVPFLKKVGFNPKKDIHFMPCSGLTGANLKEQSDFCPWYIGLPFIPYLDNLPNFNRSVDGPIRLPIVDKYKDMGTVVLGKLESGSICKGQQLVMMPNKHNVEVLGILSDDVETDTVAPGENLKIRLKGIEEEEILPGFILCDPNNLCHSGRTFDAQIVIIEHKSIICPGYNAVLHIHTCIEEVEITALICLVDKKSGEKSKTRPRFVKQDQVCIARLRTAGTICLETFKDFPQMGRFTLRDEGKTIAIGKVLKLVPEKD
T6 sequence (Q96SW2 whole entry): as the sequence (Q96SW2 whole entry) above
T6 sequence (Q16531 whole entry partner): as the sequence (Q16531 whole entry partner) above
Procedure, shortened: as §1

T1 sequence (P30291 whole entry): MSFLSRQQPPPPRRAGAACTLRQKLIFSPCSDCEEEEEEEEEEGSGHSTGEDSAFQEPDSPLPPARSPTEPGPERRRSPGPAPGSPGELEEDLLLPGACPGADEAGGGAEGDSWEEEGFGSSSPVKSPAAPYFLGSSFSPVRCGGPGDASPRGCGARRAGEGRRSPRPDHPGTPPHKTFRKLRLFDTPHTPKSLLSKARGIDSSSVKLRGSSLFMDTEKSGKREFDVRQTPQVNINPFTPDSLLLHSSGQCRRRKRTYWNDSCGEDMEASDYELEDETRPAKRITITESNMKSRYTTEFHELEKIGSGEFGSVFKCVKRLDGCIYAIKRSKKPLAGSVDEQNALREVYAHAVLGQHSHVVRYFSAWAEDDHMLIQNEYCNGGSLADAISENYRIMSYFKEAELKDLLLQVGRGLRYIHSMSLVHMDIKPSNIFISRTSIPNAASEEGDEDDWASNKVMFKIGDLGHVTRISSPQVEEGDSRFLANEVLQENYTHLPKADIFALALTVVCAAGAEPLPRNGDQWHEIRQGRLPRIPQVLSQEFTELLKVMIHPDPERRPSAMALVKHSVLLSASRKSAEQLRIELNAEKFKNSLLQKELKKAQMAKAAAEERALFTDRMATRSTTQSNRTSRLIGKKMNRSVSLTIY
T1 sequence (Q96SW2 whole entry): as the sequence (Q96SW2 whole entry) above
T1 sequence (Q16531 whole entry partner): as the sequence (Q16531 whole entry partner) above

Structure (SMILES) | Degradation of substrate protein WEE1 (substrate protein remaining %) [1] | Degradation of substrate protein IKZF1 (substrate protein remaining %) [2] | Degradation of substrate protein IKZF2 (substrate protein remaining %) [3] | Degradation of substrate protein IKZF3 (substrate protein remaining %) [4] | Degradation of substrate protein CK1a (substrate protein remaining %) [5] | Degradation of substrate protein GSPT1 (substrate protein remaining %) [6]
O=C1CCC(c2ccc(CO)nc2)C(=O)N1 (stereo not drawn) [GT-07010, 3-(6-(hydroxymethyl)pyridin-3-yl)piperidine-2,6-dione] | B (B is defined as substrate protein remaining % > 80%) | B (B is defined as substrate protein remaining % > 80%) | B (B is defined as substrate protein remaining % > 80%) | A (A is defined as 0% ≤ substrate protein remaining % ≤ 80%) | A (A is defined as 0% ≤ substrate protein remaining % ≤ 80%) | A (A is defined as 0% ≤ substrate protein remaining % ≤ 80%)
O=C1CCN(c2cnc(F)c(CO)c2)C(=O)N1 [GT-07556, 1-(6-fluoro-5-(hydroxymethyl)pyridin-3-yl)dihydropyrimidine-2,4(1H,3H)-dione] | A (A is defined as 0% ≤ substrate protein remaining % ≤ 80%) | A (A is defined as 0% ≤ substrate protein remaining % ≤ 80%) | B (B is defined as substrate protein remaining % > 80%) | A (A is defined as 0% ≤ substrate protein remaining % ≤ 80%) | A (A is defined as 0% ≤ substrate protein remaining % ≤ 80%) | B (B is defined as substrate protein remaining % > 80%)
NCc1cc(N2CCC(=O)NC2=O)ncc1F [GT-07369, 1-(4-(aminomethyl)-5-fluoropyridin-2-yl)dihydropyrimidine-2,4(1H,3H)-dione] | B (B is defined as substrate protein remaining % > 80%) | B (B is defined as substrate protein remaining % > 80%) | B (B is defined as substrate protein remaining % > 80%) | B (B is defined as substrate protein remaining % > 80%) | A (A is defined as 0% ≤ substrate protein remaining % ≤ 80%) | A (A is defined as 0% ≤ substrate protein remaining % ≤ 80%)
O=C1CCC(c2ncccc2CO)C(=O)N1 (stereo not drawn) [GT-07370, 3-(3-(hydroxymethyl)pyridin-2-yl)piperidine-2,6-dione] | B (B is defined as substrate protein remaining % > 80%) | B (B is defined as substrate protein remaining % > 80%) | B (B is defined as substrate protein remaining % > 80%) | B (B is defined as substrate protein remaining % > 80%) | A (A is defined as 0% ≤ substrate protein remaining % ≤ 80%) | A (A is defined as 0% ≤ substrate protein remaining % ≤ 80%)
CC(C)(C)[Si](C)(C)OCc1cncnc1NC1CCC(=O)NC1=O (stereo not drawn) [GT-07639, 3-((5-(((tert-butyldimethylsilyl)oxy)methyl)pyrimidin-4-yl)amino)piperidine-2,6-dione] | A (A is defined as 0% ≤ substrate protein remaining % ≤ 80%) | A (A is defined as 0% ≤ substrate protein remaining % ≤ 80%) | A (A is defined as 0% ≤ substrate protein remaining % ≤ 80%) | A (A is defined as 0% ≤ substrate protein remaining % ≤ 80%) | A (A is defined as 0% ≤ substrate protein remaining % ≤ 80%) | A (A is defined as 0% ≤ substrate protein remaining % ≤ 80%)
NCc1cc(N2CCC(=O)NC2=O)cnc1F [GT-07729, 1-(5-(aminomethyl)-6-fluoropyridin-3-yl)dihydropyrimidine-2,4(1H,3H)-dione] | A (A is defined as 0% ≤ substrate protein remaining % ≤ 80%) | A (A is defined as 0% ≤ substrate protein remaining % ≤ 80%) | A (A is defined as 0% ≤ substrate protein remaining % ≤ 80%) | A (A is defined as 0% ≤ substrate protein remaining % ≤ 80%) | B (B is defined as substrate protein remaining % > 80%) | A (A is defined as 0% ≤ substrate protein remaining % ≤ 80%)
O=Cc1cncc(NC2CCC(=O)NC2=O)c1 (stereo not drawn) [GT-07554, 5-((2,6-dioxopiperidin-3-yl)amino)nicotinaldehyde] | A (A is defined as 0% ≤ substrate protein remaining % ≤ 80%) | A (A is defined as 0% ≤ substrate protein remaining % ≤ 80%) | A (A is defined as 0% ≤ substrate protein remaining % ≤ 80%) | A (A is defined as 0% ≤ substrate protein remaining % ≤ 80%) | A (A is defined as 0% ≤ substrate protein remaining % ≤ 80%) | B (B is defined as substrate protein remaining % > 80%)
O=C1CCC(Nc2cc(CO)c(F)cn2)C(=O)N1 (stereo not drawn) [GT-07725, 3-((5-fluoro-4-(hydroxymethyl)pyridin-2-yl)amino)piperidine-2,6-dione] | A (A is defined as 0% ≤ substrate protein remaining % ≤ 80%) | A (A is defined as 0% ≤ substrate protein remaining % ≤ 80%) | A (A is defined as 0% ≤ substrate protein remaining % ≤ 80%) | A (A is defined as 0% ≤ substrate protein remaining % ≤ 80%) | B (B is defined as substrate protein remaining % > 80%) | A (A is defined as 0% ≤ substrate protein remaining % ≤ 80%)
NCc1cncc(N2CCC(=O)NC2=O)n1 [GT-07801, 1-(6-(aminomethyl)pyrazin-2-yl)dihydropyrimidine-2,4(1H,3H)-dione] | B (B is defined as substrate protein remaining % > 80%) | B (B is defined as substrate protein remaining % > 80%) | B (B is defined as substrate protein remaining % > 80%) | B (B is defined as substrate protein remaining % > 80%) | A (A is defined as 0% ≤ substrate protein remaining % ≤ 80%) | B (B is defined as substrate protein remaining % > 80%)
CC(C)(C)[Si](C)(C)OCc1ccc(NC2CCC(=O)NC2=O)nc1 (stereo not drawn) [GT-07552, 3-((5-(((tert-butyldimethylsilyl)oxy)methyl)pyridin-2-yl)amino)piperidine-2,6-dione] | B (B is defined as substrate protein remaining % > 80%) | B (B is defined as substrate protein remaining % > 80%) | A (A is defined as 0% ≤ substrate protein remaining % ≤ 80%) | B (B is defined as substrate protein remaining % > 80%) | B (B is defined as substrate protein remaining % > 80%) | B (B is defined as substrate protein remaining % > 80%)
O=C1CCN(c2cncc(CO)n2)C(=O)N1 [GT-07632, 1-(6-(hydroxymethyl)pyrazin-2-yl)dihydropyrimidine-2,4(1H,3H)-dione] | A (A is defined as 0% ≤ substrate protein remaining % ≤ 80%) | A (A is defined as 0% ≤ substrate protein remaining % ≤ 80%) | A (A is defined as 0% ≤ substrate protein remaining % ≤ 80%) | A (A is defined as 0% ≤ substrate protein remaining % ≤ 80%) | A (A is defined as 0% ≤ substrate protein remaining % ≤ 80%) | B (B is defined as substrate protein remaining % > 80%)
O=C1CCC(Nc2cnccc2CO)C(=O)N1 (stereo not drawn) [GT-07559, 3-((4-(hydroxymethyl)pyridin-3-yl)amino)piperidine-2,6-dione] | A (A is defined as 0% ≤ substrate protein remaining % ≤ 80%) | A (A is defined as 0% ≤ substrate protein remaining % ≤ 80%) | A (A is defined as 0% ≤ substrate protein remaining % ≤ 80%) | A (A is defined as 0% ≤ substrate protein remaining % ≤ 80%) | A (A is defined as 0% ≤ substrate protein remaining % ≤ 80%) | A (A is defined as 0% ≤ substrate protein remaining % ≤ 80%)
